Results published in patent EP0428104A2, “Treatment of multi-drug resistant tumors with pyridyloxazole-2-ones” (MERRELL DOW PHARMACEUTICALS INC., priority 1989, dated 1991).

System: CHO^R cells
Assay: Reversal of multidrug resistance: cell growth in vinblastine resistant tumor cell line, cell number by Coulter counter
Type: cell-based
Conditions: 72 hr
Method: CHO^R cells were plated at a density of 1X10⁵/35mm dish and were allowed to grow overnight at 37°C in a CO₂ incubator. The medium was replaced with medium containing the compounds and vinblastine (0.2 µg/ml). The cells were allowed to grow for further 72 hr and the cell number was determined by Coulter counter after trypsinization. […]

| SMILES | % Inhibition of Cell Growth Compound + VLB (compound 0.1 µg/ml plus vinblastine 0.2 µg/ml) | inhibition at 0.1 µg/mL (compound 0.1 µg/ml, without VLB, read-out: % Inhibition of Cell Growth Compound Only) | % Inhibition of Cell Growth Compound + VLB (compound 1 µg/ml plus vinblastine 0.2 µg/ml) | inhibition at 1 µg/mL (compound 1 µg/ml, without VLB, read-out: % Inhibition of Cell Growth Compound Only) | % Inhibition of Cell Growth Compound + VLB (compound 10 µg/ml plus vinblastine 0.2 µg/ml) | inhibition at 10 µg/mL (compound 10 µg/ml, without VLB, read-out: % Inhibition of Cell Growth Compound Only) | effect on cell growth (VLB alone at 0.2 µg/ml) |
| --- | --- | --- | --- | --- | --- | --- | --- |
| CCCc1[nH]c(=O)oc1-c1ccncc1 [4-PROPYL-5(4-PYRIDINYL)-2(3H)-OXAZOLONE, 4-propyl-5-(4-pyridinyl)-2(3H)-oxazolone] | 6% | 0% | 22% | 0% | 82% | 55% |  |
| CC[C@]1(O)C[C@@H]2CN(CCc3c([nH]c4ccccc34)[C@@](C(=O)OC)(c3cc4c(cc3OC)N(C)[C@H]3[C@@](O)(C(=O)OC)[C@H](OC(C)=O)[C@]5(CC)C=CCN6CC[C@]43[C@@H]65)C2)C1 [VLB, vinblastine, reference compound] |  |  |  |  |  |  | did not have any effect on cell growth |
